# Laboratory results: article PMC6270759, “Constituents of the Roots and Leaves of Ekebergia capensis and Their Potential Antiplasmodial and Cytotoxic Activities” (Molecules, 2014)
# Where two headings read alike, the source gives them in different places. Marks after values point to notes of the source that are not given here.
# Key:
# [1] = tested on: African monkey kidney (vero) cells; assay: MTT cytotoxicity assay, vero cells; type: cell-based; settings: Primates, 48 h, read-out: IC50 Vero
# Source text: (§1) This assay is based on the ability of a mitochondrial dehydrogenase enzyme from viable cells to cleave the tetrazolium rings of the pale yellow MTT and thereby form dark blue formazan crystals, which are largely impermeable to cell membranes, resulting in their accumulation within healthy cells. The amount of generated formazan is directly proportional to the number of cells. […] Cells were maintained in Eagle’s Minimum Essential Medium (MEM) containing 10% fetal bovine serum (FBS). A cell density of 20.000 cells per well in 100 μL were seeded on 96-well plates and incubated for 12 h at 37 °C and 5% CO2 to attach to the surface. […] The plates were incubated for 48 h at 37 °C and 5% CO2, followed by an addition of 10 µL MTT viability indicator reagent. The plates were incubated for additional 4 h at the same conditions. Next, all media was removed from the plates and 100 µL DMSO was added to dissolve the formazan crystals. The plates were read on a Multiskan EX Labsystems scanning multi-well spectrophotometer at 562 nm, and 620 nm as reference. The results were recorded as optical density (OD) per well at each drug concentration. The data was transferred into the software Microsoft Excel and expressed as percentage of the untreated controls.
# [2] = tested on: chloroquine-sensitive D6 strain of P. falciparum; assay: In vitro antiplasmodial assay, (G-3H) hypoxanthine incorporation, D6 strain; type: cell-based; settings: Plasmodium falciparum
# Method: (§2) Continuous in vitro cultures of asexual erythrocytic stages of Indochinese chloroquine-resistant W2 and Sierra Leonean chloroquine-sensitive D6 strains of P. falciparum were maintained following the modified procedure described by Trager and Jensen. Drug assay was carried out following a modification of the semiautomated microdilution technique, which measures the ability of the extracts to inhibit the incorporation of (G-^3H) hypoxanthine into the malaria parasite. […] Data was transferred into the software Microsoft Excel and was expressed as the percentage of the untreated controls. The drug concentration required for 50% inhibition of (G-^3H) hypoxanthine incorporation into parasite nucleic acid was calculated with nonlinear regression analysis of the dose-response curve.
# [3] = tested on: MDA-MB-231 human breast cancer cells; assay: Alamar Blue cytotoxicity assay, MDA-MB-231 cells; type: cell-based; settings: pure compounds, 72 h
# Method: Cytotoxicity tests on MDA-MB-231 cells were carried out following a previously described procedure. MDA-MB-231 human breast cancer cells were cultured in Dulbecco’s modified eagle medium (DMEM) supplemented with 10% (v/v) fetal bovine serum, 2 mM L-glutamine, 100 units/mL penicillin and 100 μg/mL streptomycin at 37 °C in humidified 5% CO2. For cytotoxicity assays, cells were seeded in 96-well plates at optimal cell density (10,000 cells per well) to ensure exponential growth for the duration of the assay. After a 24 h preincubation growth, the medium was replaced with experimental medium containing the appropriate drug concentrations or vehicle controls (0.1% or 1.0% v/v DMSO). After 72 h of incubation, cell viability was measured using Alamar Blue reagent (Invitrogen Ab, Lidingö, Sweden) according to the manufacturer’s instructions. Absorbance was measured at 570 nm with 600 nm as a reference wavelength. Results were expressed as the mean ± standard error for six replicates as a percentage of vehicle control (taken as 100%). Experiments were performed independently at least six times. Statistical analyses were performed using a two-tailed Student’s t-test. p < 0.05 was considered to be statistically significant.
# [4] = tested on: chloroquine-resistant W2 strain of P. falciparum; assay: In vitro antiplasmodial assay, (G-3H) hypoxanthine incorporation, W2 strain; type: cell-based; settings: Plasmodium falciparum, pure compounds
# Method: as §2
# [5] = tested on: human larynx carcinoma (HEp2) cells; assay: MTT cytotoxicity assay, HEp2 cells; type: cell-based; settings: HEp-2, pure compounds, 48 h
# Method: (§3) A rapid colorimetric assay was carried out using 3-(4,5-dimethylthiazol-2-yl)-2,5-diphenyltetrazolium bromide (MTT). This assay is based on the ability of a mitochondrial dehydrogenase enzyme from viable cells to cleave the tetrazolium rings of the pale yellow MTT and thereby form dark blue formazan crystals, which are largely impermeable to cell membranes, resulting in their accumulation within healthy cells. The amount of generated formazan is directly proportional to the number of cells. In this assay, the mammalian cell lines African monkey kidney (vero), mouse breast cancer (4T1) and human larynx carcinoma (HEp2) were used. Cells were maintained in Eagle’s Minimum Essential Medium (MEM) containing 10% fetal bovine serum (FBS). A cell density of 20.000 cells per well in 100 μL were seeded on 96-well plates and incubated for 12 h at 37 °C and 5% CO2 to attach to the surface. Samples of the tested extracts and isolated compounds were added to the cultured cells in rows H-B over a concentration range of 0.14 to 100 μg/mL, whereas wells 1–8 of row A served as untreated controls and wells 9–12 as blank (1% DMSO, v/v). The plates were incubated for 48 h at 37 °C and 5% CO2, followed by an addition of 10 µL MTT viability indicator reagent. The plates were incubated for additional 4 h at the same conditions. Next, all media was removed from the plates and 100 µL DMSO was added to dissolve the formazan crystals. The plates were read on a Multiskan EX Labsystems scanning multi-well spectrophotometer at 562 nm, and 620 nm as reference. The results were recorded as optical density (OD) per well at each drug concentration. The data was transferred into the software Microsoft Excel and expressed as percentage of the untreated controls. Percentage cytotoxicity (PC) as compared to the untreated controls was calculated as PC = [A − B/A] × 100, where A is the mean OD of the untreated cells and B is the mean OD at each drug concentration. The drug concentration required for 50% inhibition of cell growth was estimated using nonlinear regression analysis of the dose- response curve.
# vero cells = assay: Interaction of oleanonic acid (2) with other triterpenoids, fixed ratios, vero cell cytotoxicity; type: cell-based, African monkey; settings: for IC50: Primates, ratio 0:1, in the absence of 2 (for 2: alone), read-out: IC50 (μg/mL), substance alone; for ∑FIC 1:1: ratio of oleanonic acid (2) versus constituent 1:1; for ∑FIC 1:3: ratio of oleanonic acid (2) versus constituent 1:3; for ∑FIC 3:1: ratio of oleanonic acid (2) versus constituent 3:1
# Source text: as §3, with “This” for “A rapid colorimetric assay was carried out using 3-(4,5-dimethylthiazol-2-yl)-2,5-diphenyltetrazolium bromide (MTT). This”, “In this assay, the mammalian cell lines African monkey kidney (vero), mouse breast cancer (4T1) and human larynx carcinoma (HEp2) were used.” left out, “Samples of the tested extracts and isolated compounds were added to the cultured cells in rows H-B over a concentration range of 0.14 to 100 μg/mL, whereas wells 1–8 of row A served as untreated controls and wells 9–12 as blank (1% DMSO, v/v).” left out, “curve. The interaction of oleanonic acid (2) with other triterpenoids was studied using the fixed concentration ratios oleanonic acid: ‘other triterpenoid’ 0:1, 1:3, 1:1, 3:1, 1:0. The vero cell cytotoxicity assay was used, as described above, to evaluate the toxicity of the mixtures. To determine whether there was synergy, additive effect or antagonism, the sum of fractional inhibition concentration (∑FIC) was calculated using the formula Ax/Ay + Bx/By = K, where Ax and Bx are the IC50s when the substances are used in combination, and Ay and By are the IC50s, when the substances are used alone. The data was scored with the scale ∑FIC < 1: synergism, 2 > ∑FIC ≥ 1: additive, 4 > ∑FIC ≥ 2: slight antagonism, ∑FIC ≥ 4: marked antagonism.” for “curve.”
# [6] = tested on: mouse breast cancer (4T1) cells; assay: MTT cytotoxicity assay, 4T1 cells; type: cell-based; settings: 4T1, 48 h, pure compounds
# Source text: as §1
# [7] = tested on: 3D7 strain of P. falciparum; parameters: method as in PMID 14598212; settings: cited from earlier work
# [8] = pure compounds, P. falciparum D6, mean of at least three independent experiments, read-out: IC50 D6
SMILES,IC50 ([1]; Vero) [µM],"IC50 ([2]; D6, read-out: IC50(D6)) [µM]",IC50 [3] [µM],"IC50 ([1]; vero cells, MTT) [µM]",IC50 [4] [µM],"IC50 [2, 8] [µM]",IC50 [5] [µM],IC50 (vero cells) [µg/mL],IC50 [6] [µM],"Interaction with the cytotoxic effect of oleanonic acid (2), in words (vero cells)",∑FIC 1:1 (vero cells),∑FIC 1:3 (vero cells),∑FIC 3:1 (vero cells),"in vitro antiplasmodial activity against 3D7, in words [7]"
"CCN(CC)CCCC(C)Nc1ccnc2cc(Cl)ccc12 (centres unmarked) [Chloroquine, reference compound]",43.9,0.0077,,,,,,,,,,,,
"CC1(C)CC[C@]2(C(=O)O)CC[C@]3(C)C(=CC[C@@H]4[C@@]5(C)CCC(=O)C(C)(C)[C@@H]5CC[C@]43C)[C@@H]2C1 [Compound 2, oleanonic acid]",,,> 212,35.8 ± 1.3,76.7 ± 4,38.8 ± 0.5,1.4 ± 0.1,14.8,,,,,,
"CC1(C)CC[C@]2(C(=O)O)CC[C@]3(C)C(=CC[C@@H]4[C@@]5(C)CC[C@@H](O)C(C)(C)[C@@H]5CC[C@]43C)C2C1 (stereo partly drawn) [Compound 3, 3-epi-oleanolic acid]",,,36.54 ± 0.02,58 ± 5.2,179 ± 6,205 ± 3,29.8 ± 0.3,22.5,30.3 ± 2.6,markedly antagonized,5.2 ^c,9.8 ^c,5.8 ^c,
"CC1(C)CC[C@]2(C(=O)O)CC[C@]3(C)C(=CC[C@@H]4[C@@]5(C)CC[C@H](O)C(C)(C)[C@@H]5CC[C@]43C)[C@@H]2C1 [Compound 4, oleanolic acid]",,,39.82 ± 0.03,112 ± 5.1,82.7 ± 2,49.6 ± 2.3,134.9 ± 0.7,40.3,118 ± 2.6,slight antagonistic effect,4.7 ^c,3.3 ^c,3.6 ^c,moderate
"CC(C)C12CCC3(CCC4(C)C(CCC5C6(C)CCC(=O)C(C)(C)C6CCC54C)C3O1)CO2 (centres unmarked) [Compound 5, ekeberin A]",,,,> 219,> 219,182 ± 6,> 219,> 100,163 ± 4.3,"antagonized by high concentrations of ekeberin A (5), but at lower relative concentrations 5 enhanced the toxicity of 2",<1.4 ^c,<4 ^c,<1.3 ^c,
"CC(=CCCC=C(C)CCC=C(C)CCC(O)C(C)(O)CO)CCC=C(C)CCC(O)C(C)(C)O (centres unmarked) [Compound 6, 2-hydroxymethyl-2,3,22,23-tetrahydroxy-6,10,15,19,23-pentamethyl-6,10,14,18-tetracosatetraene]",,,36.69 ± 0.04,35.7 ± 2.1,66.9 ± 0.6,27.1 ± 0.4,38.4 ± 0.8,13.6,30.2 ± 1.3,weak antagonistic effects,2.2 ^c,2.2 ^c,2.3 ^c,
"CC(=CCCC=C(C)CCC=C(C)CCC(O)C(C)(C)O)CCC=C(C)CCC(O)C(C)(C)O (centres unmarked) [Compound 7, 2,3,22,23-tetrahydroxy-2,6,10,15,19,23-hexamethyl-6,10,14,18-tetracosatetraene]",,,> 209,24.7 ± 1.8,64.3 ± 1,56.1 ± 0.4,35.5 ± 3.1,11,22.5 ± 3.2,weak antagonistic effects,1.9 ^c,2 ^c,2.2 ^c,
"COC(=O)C[C@H]1C(C)(C)[C@H](O)[C@@H]2CC3=C4CC(=O)O[C@@H](c5ccoc5)[C@]4(C)CC[C@@H]3[C@@]1(C)C2=O [Compound 8, proceranolide]",,,,> 213,150 ± 3,84.7 ± 0.8,> 213,,> 213,,,,,
"O=c1c(O[C@@H]2O[C@H](CO)[C@@H](O)[C@H](O)[C@H]2O)c(-c2ccc(O)cc2)oc2cc(O)cc(O)c12 [Compound 9, kaempferol-3-O-β-D-glucopyranoside]",,,> 223,> 223,105.8 ± 0.5,97.1 ± 1,> 223,,> 223,,,,,
"O=c1c(O[C@@H]2O[C@H](CO)[C@@H](O)[C@H](O)[C@H]2O)c(-c2ccc(O)c(O)c2)oc2cc(O)cc(O)c12 [Compound 10, quercetin-3-O-β-D-glucopyranoside]",,,> 216,> 216,105.8 ± 1,42.9 ± 0.3,> 216,,> 216,,,,,
